Assays:
BTK-GFP = biological target: T1, BTK-GFP (Homo sapiens, UniProt Q06187+Q96SW2); assay: BTK-GFP protein abundance flow cytometry assay in HEK293A cells; format: cell-based; conditions: 24 h
T1 construct: the BTK open reading frame (ORF) was first shuttled from a pcDNA-DEST40-BTK vector (Invitrogen library ID INV_20090504v1); expressed in transfected cells; host or cells: HEK293A cells (Invitrogen R70507), lentiviral transduction with pLenti6-BTK-GFP-Ires-RFP, blasticidin-selected
Outline: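 HEK293A cells stably expressing BTK-GFP-iresRFP treated 24 h at 37° C with 10-point 1:3 dilutions from 10 μM (0.1% DMSO), in duplicate. Median GFP of 5,000 single cells by flow cytometry, normalized to GFP-negative iresRFP cells (0%) and DMSO (100%); DC50 from concentration-response curves.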

IKZF3-GFP = biological target: T2, IKZF3-GFP (Homo sapiens, UniProt Q9UKT9); assay: IKZF3-GFP protein abundance flow cytometry assay in HEK293A cells; format: cell-based; conditions: 24 h, Table 1
T2 construct: gateway cloning of IKZF3 from a pENTR221-IKZF3(STOP-Leu) construct into the previously described pLenti6-DEST-GFP-Ires-RFP vector; expressed in transfected cells; host or cells: HEK293A cells (Invitrogen R70507), lentiviral transduction with pLenti6-IKZF3-GFP-Ires-RFP, blasticidin-selected
Procedure: Compounds of the invention were tested in the following cellular assays. […] TMD8 cells are BTK dependent and OCI-LY3 cells are BTK independent.
BTK-GFP and IKZF3-GFP Protein Abundance Flow Cytometry Assay in HEK293A Cells:
Degradation of BTK or IKZF3 was measured in HEK293A cells (Invitrogen R70507) expressing either BTK-GFP and RFP or IKZF3-GFP and RFP from a stably integrated bicistronic BTK-GFP-iresRFP or IKZF3-GFP-iresRFP construct, respectively. Reduction of the GFP signal measured by flow cytometry served as readout for BTK or IKZF3 degradation after degrader treatment.
Stable HEK293A-BTK-GFP-iresRFP cells were maintained in complete growth medium (DMEM high Glucose+10% FCS+1% L-Glutamine+1% NEAA+1% NaPyr.) with passaging performed twice per week. On Day 0, HEK293A-BTK-GFP-iresRFP or HEK293A-IKZF3-GFP-iresRFP and HEK293A-iresRFP cells were seeded at 10,000 cells/well in a 96-well microtiter plate in 260 μl complete medium. On Day 1, cells were treated in duplicate with 10-point 1:3 dilution series of compound using the HP D300 Digital Dispenser (Tecan). DMSO concentrations were normalized across the plate to 0.1%. On Day 2, after 24 h of incubation at 37° C., treatment media was discarded, cells rinsed with 100 ul/well PBS and then detached using 40 ul trypsin/well for 5 min. Trypsin was neutralized with 100 ul/well PBS+20% FCS). Flow cytometry was performed on the samples using the BD FACS CANTO II (Becton Dickinson). Cell identification was then performed using forward (FSC) vs. side scatter (SSC) plots. Single cell discrimination is performed using SSC-Width (SSC-W) vs. SSC-Height (SSC-H) plots. Median GFP values for 5,000 single cells are used to determine BTK levels. Median GFP values from HEK293A-iresRFP are used as a background signal and thus defining 0% BTK signal. Median GFP values from DMSO treated HEK293A-BTK-GFP-iresRFP or HEK293A-IKZF3-GFP-iresRFP are used to define 100% BTK signal for subsequent DC50 curves (concentration at 50% BTK degradation). GFP and RFP are read in the channels called FITC and PE, respectively.
Concentration response curves plotting relative reduction of the GFP signal (measured by flow cytometry) versus 10 compound concentrations (starting concentration 10 μM, 3 fold dilution steps) of the compounds allowed generation of DC50 values.
Data is shown in Table 2, in which, DC50 refers to the concentration at which 50% maximal degradation was observed; deg Amax is the extent of degradation and the value refers to the % protein remaining at the concentration at which maximum degradation is seen.

T1 sequence (Q06187 whole entry): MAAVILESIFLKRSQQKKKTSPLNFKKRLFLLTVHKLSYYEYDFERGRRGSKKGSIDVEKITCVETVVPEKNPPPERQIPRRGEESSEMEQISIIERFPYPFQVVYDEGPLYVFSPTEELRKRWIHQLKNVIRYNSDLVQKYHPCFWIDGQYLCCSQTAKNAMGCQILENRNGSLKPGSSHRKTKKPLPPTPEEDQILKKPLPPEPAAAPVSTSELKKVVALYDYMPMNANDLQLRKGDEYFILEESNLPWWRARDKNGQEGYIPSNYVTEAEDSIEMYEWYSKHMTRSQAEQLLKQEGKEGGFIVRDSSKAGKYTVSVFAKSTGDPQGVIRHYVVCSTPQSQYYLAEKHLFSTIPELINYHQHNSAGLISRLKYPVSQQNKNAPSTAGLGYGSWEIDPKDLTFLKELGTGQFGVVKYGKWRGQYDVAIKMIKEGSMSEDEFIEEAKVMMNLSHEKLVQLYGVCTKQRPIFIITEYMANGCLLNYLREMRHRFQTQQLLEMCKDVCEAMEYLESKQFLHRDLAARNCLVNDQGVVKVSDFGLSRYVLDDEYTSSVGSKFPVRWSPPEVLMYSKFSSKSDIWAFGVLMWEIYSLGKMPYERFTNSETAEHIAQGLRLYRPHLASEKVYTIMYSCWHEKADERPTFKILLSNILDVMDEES
T1 sequence (Q96SW2 whole entry): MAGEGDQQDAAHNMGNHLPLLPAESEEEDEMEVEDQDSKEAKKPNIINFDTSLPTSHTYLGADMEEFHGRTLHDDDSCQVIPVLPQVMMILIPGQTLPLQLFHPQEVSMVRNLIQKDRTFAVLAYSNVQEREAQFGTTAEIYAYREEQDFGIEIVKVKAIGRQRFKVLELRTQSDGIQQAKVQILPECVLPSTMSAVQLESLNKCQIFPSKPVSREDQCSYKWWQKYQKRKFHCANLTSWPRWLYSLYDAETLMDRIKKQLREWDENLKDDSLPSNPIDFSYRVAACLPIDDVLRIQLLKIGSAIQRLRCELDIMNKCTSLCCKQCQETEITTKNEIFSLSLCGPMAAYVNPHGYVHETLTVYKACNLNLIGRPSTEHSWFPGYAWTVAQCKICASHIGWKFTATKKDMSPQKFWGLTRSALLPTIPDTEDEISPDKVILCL
T1 sequence (Q16531 whole entry partner): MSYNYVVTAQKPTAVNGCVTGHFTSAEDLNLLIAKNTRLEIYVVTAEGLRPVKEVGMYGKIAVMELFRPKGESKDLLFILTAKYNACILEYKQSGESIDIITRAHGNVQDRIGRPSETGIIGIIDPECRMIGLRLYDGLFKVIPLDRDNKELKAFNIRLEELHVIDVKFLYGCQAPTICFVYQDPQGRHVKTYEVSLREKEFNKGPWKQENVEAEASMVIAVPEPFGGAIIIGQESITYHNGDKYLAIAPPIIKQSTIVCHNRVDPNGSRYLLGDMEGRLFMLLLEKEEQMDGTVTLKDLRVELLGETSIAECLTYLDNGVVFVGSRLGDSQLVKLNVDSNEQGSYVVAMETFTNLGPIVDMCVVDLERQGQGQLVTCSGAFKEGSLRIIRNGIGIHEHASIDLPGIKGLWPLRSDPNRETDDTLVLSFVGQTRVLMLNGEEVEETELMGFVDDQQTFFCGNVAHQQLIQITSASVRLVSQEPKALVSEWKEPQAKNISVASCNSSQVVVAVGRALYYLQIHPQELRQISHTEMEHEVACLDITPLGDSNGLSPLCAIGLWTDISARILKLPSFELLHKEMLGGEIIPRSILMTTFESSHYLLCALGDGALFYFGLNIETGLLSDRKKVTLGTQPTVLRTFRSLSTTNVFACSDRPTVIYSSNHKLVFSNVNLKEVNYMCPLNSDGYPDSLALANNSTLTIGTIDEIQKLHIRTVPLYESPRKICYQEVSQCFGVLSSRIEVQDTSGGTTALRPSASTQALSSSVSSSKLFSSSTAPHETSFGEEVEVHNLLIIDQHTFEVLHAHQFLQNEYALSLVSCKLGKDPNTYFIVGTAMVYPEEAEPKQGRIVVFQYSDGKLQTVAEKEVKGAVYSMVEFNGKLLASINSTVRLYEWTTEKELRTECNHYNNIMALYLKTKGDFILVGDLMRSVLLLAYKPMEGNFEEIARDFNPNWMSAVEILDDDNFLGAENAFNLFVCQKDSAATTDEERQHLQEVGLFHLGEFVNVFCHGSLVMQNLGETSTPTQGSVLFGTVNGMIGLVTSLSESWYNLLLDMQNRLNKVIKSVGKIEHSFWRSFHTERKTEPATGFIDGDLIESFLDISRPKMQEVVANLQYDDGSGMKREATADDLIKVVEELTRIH
T2 sequence (Q96SW2 whole entry partner): as the sequence (Q96SW2 whole entry) above
T2 sequence (Q16531 whole entry partner): as the sequence (Q16531 whole entry partner) above
T2 sequence (Q9UKT9 whole entry): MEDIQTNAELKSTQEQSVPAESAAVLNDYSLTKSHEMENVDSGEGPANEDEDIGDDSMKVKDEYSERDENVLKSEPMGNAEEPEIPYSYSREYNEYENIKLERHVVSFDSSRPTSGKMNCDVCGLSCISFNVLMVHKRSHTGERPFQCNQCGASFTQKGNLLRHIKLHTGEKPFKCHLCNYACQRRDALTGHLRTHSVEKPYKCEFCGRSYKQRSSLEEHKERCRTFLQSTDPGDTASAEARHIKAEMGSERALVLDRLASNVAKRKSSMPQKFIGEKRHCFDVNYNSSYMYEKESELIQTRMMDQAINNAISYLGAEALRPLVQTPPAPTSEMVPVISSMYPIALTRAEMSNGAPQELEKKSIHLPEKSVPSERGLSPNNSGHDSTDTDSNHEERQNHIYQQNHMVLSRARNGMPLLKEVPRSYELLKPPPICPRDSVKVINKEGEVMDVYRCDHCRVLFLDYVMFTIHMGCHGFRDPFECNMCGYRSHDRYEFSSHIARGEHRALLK

**Q.** What does the source list for `COc1ccc(C(=O)N2CCC(OC3CCN(CCc4ccc(-c5cc6c(-c7cc(F)cc(NC(=O)N8C[C@H](CC(C)C)[C@@H](O)C8)c7C)ncnc6[nH]5)cc4)CC3)CC2)cc1N1CCC(=O)NC1=O` [Compound 13, (3R,4S)—N-(3-(6-(4-(2-(4-((1-(3-(2,4-Dioxotetrahydropyrimidin-1(2H)-yl)-4-methoxybenzoyl)piperidin-4-yl)oxy)piperidin-1-yl)ethyl)phenyl)-7H-pyrrolo[2,3-d]pyrimidin-4-yl)-5-fluoro-2-methylphenyl)-3-hydroxy-4-isobutylpyrrolidine-1-carboxamide]?
**A.** BTK deg Amax % (BTK-GFP; % protein remaining at concentration of maximum degradation): 2.9%; DC50 (BTK-GFP; concentration at which 50% maximal degradation was observed): 0.5 nM; IKZF3 deg Amax % (IKZF3-GFP; % protein remaining at maximum degradation): 99.7%; DC50 (IKZF3-GFP): > 3300 nM

From US11541056B2, “3-hydroxy-N-(3-(7H-pyrrolo[2,3-d]pyrimidin-4-yl)phenyl)pyrrolidine-1-carboxamide derivatives” (NOVARTIS AG, priority 2018, dated 2023)
